Results: US20150344540A1, “NOVEL GLP-1 RECEPTOR AGONISTS WITH CHOLESTEROL EFFLUX ACTIVITY” (NOVO NORDISK A/S, priority 2012, published 2015)
Read-outs that look alike come from different tables or passages of the source. Where a SMILES comes first, the peptide text is derived from it. [ ]: non-standard residue; d: D form. Aib = CC(C)(N)C(=O)O

How the values were obtained:
human GLP-1 receptor [1] = target: human GLP-1 receptor (human, UniProt P43220)
[2] = system: Mouse monocyte/macrophage cell line, RAW 264.7; assay: Cholesterol efflux assay (3H-cholesterol, macrophage cell line); type: cell-based; conditions: RAW 264.7, 4 hrs incubation, 0.1% human serum albumin, ABCA1-mediated efflux
human GLP-1 receptor [3] = target: T1, human GLP-1 receptor (Homo sapiens, UniProt P43220); assay: Functional GLP-1 receptor assay, in vitro potency (CRE luciferase; whole cells); type: cell-based; conditions: BHK cells expressing human GLP-1 receptor
Target sequence in this assay (P43220 24-463): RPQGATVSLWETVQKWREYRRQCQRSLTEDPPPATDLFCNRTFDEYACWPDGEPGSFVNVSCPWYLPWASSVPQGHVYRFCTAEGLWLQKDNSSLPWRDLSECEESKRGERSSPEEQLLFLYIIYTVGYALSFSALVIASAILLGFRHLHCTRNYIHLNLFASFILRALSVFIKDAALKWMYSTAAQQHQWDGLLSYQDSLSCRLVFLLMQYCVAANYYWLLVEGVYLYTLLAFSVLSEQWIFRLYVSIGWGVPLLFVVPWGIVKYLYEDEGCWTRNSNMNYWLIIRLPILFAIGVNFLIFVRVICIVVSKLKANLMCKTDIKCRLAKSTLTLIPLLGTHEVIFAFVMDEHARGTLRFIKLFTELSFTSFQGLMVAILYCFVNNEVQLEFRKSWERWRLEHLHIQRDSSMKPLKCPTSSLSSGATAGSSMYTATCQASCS

[4] = Pharmacokinetics in normal mice after i.v. and s.c. administration; type: in vivo, female C57B1/6J mice
[5] = Pharmacokinetics in mini-pigs after i.v. administration; conditions: female, Göttingen, minipig, plasma, iv, 5 nmol/kg
In short: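 Female Göttingen mini-pigs (15-20 kg, N=3) received 5 nmol/kg i.v. via central venous catheter. Plasma levels of N-terminally intact peptide measured by LOCI immunoassay with N-terminal and mid-/C-terminal antibodies; non-compartmental analysis of individual profiles.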

human GLP-1 receptor [6] = target: T1, human GLP-1 receptor
[7] = GLP1R CRE luc 1% HSA EC50 Mean Value, 1% HSA
[8] = female, C57B1/6J, mouse, plasma, sc
[9] = mice, s.c., Compound 1 dose 323 nmol/kg, Compound 5 dose 62 nmol/kg
[10] = T1/2 Mean Value, Göttingen mini-pigs, N=3
[11] = 0% HSA, read-out: GLP1R CRE luc 0% HSA EC50 Mean Value

CRE luciferase EC50, 0% HSA (human GLP-1 receptor [1]) [nM]	CRE luciferase EC50, 1% HSA (human GLP-1 receptor [1]) [nM]	C0 [5] [nM]	Vd [5] [L/kg]	clearance [5] [mL/h/kg]	half-life [5, 10] [h]	Compound	4 h Cholesterol Efflux Emax [2] [%]	also measured
0.591	0.297	–	–	–	–	[Aib2,Gly16,Lys17,Arg20,Glu21,Leu27,Glu28,Lys29]-Glucagonyl-(1-29)-Aib-Lys-Glu-Phe-Leu amide (peptide)	–	–
1.63	0.908	–	–	–	–	[Aib2,Gly16,Lys17,Ala18,Arg20,Glu21,Leu27,Glu28,Lys29]-Glucagonyl-(1-29)-Aib-Lys-Glu-Phe-Leu amide (peptide)	–	–
0.434	0.198	–	–	–	–	[Lys17,Ala18,Arg20,Glu21,Leu27,Glu28,Lys29]-Glucagonyl-(1-29)-Aib-Lys-Glu-Phe-Leu amide (peptide)	–	–
–	–	63.3	0.128	3.87	23	CC[C@H](C)[C@H](NC(=O)[C@H](Cc1ccccc1)NC(=O)[C@H](CCC(=O)O)NC(=O)[C@H](CCCCN)NC(=O)[C@@H](NC(=O)[C@H](C)NC(=O)[C@H](CCC(=O)O)NC(=O)CNC(=O)[C@H](CCC(=O)O)NC(=O)[C@H](CC(C)C)NC(=O)[C@H](Cc1ccc(O)cc1)NC(=O)[C@H](CO)NC(=O)[C@H](CO)NC(=O)[C@@H](NC(=O)[C@H](CC(=O)O)NC(=O)[C@H](CO)NC(=O)[C@@H](NC(=O)[C@H](Cc1ccccc1)NC(=O)[C@@H](NC(=O)CNC(=O)[C@H](CCC(=O)O)NC(=O)C(C)(C)NC(=O)[C@@H](N)Cc1c[nH]cn1)[C@@H](C)O)[C@@H](C)O)C(C)C)C(C)C)C(=O)N[C@@H](C)C(=O)N[C@@H](Cc1c[nH]c2ccccc12)C(=O)N[C@@H](CC(C)C)C(=O)N[C@H](C(=O)N[C@@H](CCC(=O)O)C(=O)N[C@@H](CCCCN)C(=O)N[C@H](C(=O)N[C@@H](CCCCN)C(=O)N[C@@H](CCC(=O)O)C(=O)N[C@@H](Cc1c[nH]cn1)C(=O)N[C@@H](CC(C)C)C(N)=O)C(C)C)C(C)C [Compound 5, [Aib8,Glu23,Val25,Glu34,Lys35,Val36,Lys37]-GLP-1-(7-37)-peptidyl-Glu-His-Leu amide] (H-H[Aib]EGTFTSDVSSYLEGEAVKEFIAWLVEKVKEHL-NH2)	111	EC50 (human GLP-1 receptor [3]; [7]): 0.116 nM; half-life ([4]; female, C57B1/6J, mouse, plasma, iv): 5.9 h; Vd ([4]; female, C57B1/6J, mouse, plasma, iv, read-out: Volume of distribution): 0.048 L/kg; Tmax [4, 8]: 4 h; half-life [4, 8]: 9.7 h; clearance ([4]; mice, i.v., Compound 1 dose 99 nmol/kg, Compound 5 dose 135 nmol/kg): 5.6 mL/h/kg; Volume of distribution [4, 9]: 0.1164 L/kg; clearance [4, 9]: 8.298 mL/h/kg; half-life ([5]; T1/2, mini-pigs): 23 h
1.17	0.588	–	–	–	–	[Glu15,Glu16,Lys17,Lys18,Lys20,Glu21,Ile23,Ala24,Leu27,Glu28,Lys29]-Glucagonyl-(1-29)-Aib-Lys-Glu-Phe-Leu amide (peptide)	–	–
–	–	50.6	0.0654	2.66	16.7	CC[C@H](C)[C@H](NC(=O)[C@H](Cc1ccccc1)NC(=O)[C@H](CCC(=O)O)NC(=O)[C@H](CCCCN)NC(=O)[C@@H](NC(=O)[C@H](C)NC(=O)[C@H](CCC(=O)O)NC(=O)CNC(=O)[C@H](CCC(=O)O)NC(=O)[C@H](CC(C)C)NC(=O)[C@H](Cc1ccc(O)cc1)NC(=O)[C@H](CO)NC(=O)[C@H](CO)NC(=O)[C@@H](NC(=O)[C@H](CC(=O)O)NC(=O)[C@H](CO)NC(=O)[C@@H](NC(=O)[C@H](Cc1ccccc1)NC(=O)[C@@H](NC(=O)CNC(=O)[C@H](CCC(=O)O)NC(=O)C(C)(C)NC(=O)[C@@H](N)Cc1c[nH]cn1)[C@@H](C)O)[C@@H](C)O)C(C)C)C(C)C)C(=O)N[C@@H](C)C(=O)N[C@@H](Cc1c[nH]c2ccccc12)C(=O)N[C@@H](CC(C)C)C(=O)N[C@H](C(=O)N[C@@H](CCC(=O)O)C(=O)N[C@@H](CCCCN)C(=O)NC(C)(C)C(=O)N[C@@H](CCCCN)C(=O)N[C@@H](CCC(=O)O)C(=O)N[C@@H](Cc1ccccc1)C(N)=O)C(C)C [Compound 62, [Aib8,Glu23,Val25,Glu34,Lys35,Aib36,Lys37]-GLP-1-(7-37)-peptidyl-Glu-Phe amide] (H-H[Aib]EGTFTSDVSSYLEGEAVKEFIAWLVEK[Aib]KEF-NH2)	111	EC50 (human GLP-1 receptor [3]; [11]): 0.022 nM; EC50 (human GLP-1 receptor [3]; [7]): 0.015 nM
0.118	0.061	–	–	–	–	[Glu15,Glu16,Gln17,Ala18,Lys20,Glu21,Ile23,Ala24,Leu27,Glu28,Lys29]-Glucagonyl-(1-29)-Aib-Lys-Glu-Phe-Leu amide (peptide)	–	–
–	–	79.7	0.152	3.09	32.9	CC[C@H](C)[C@H](NC(=O)[C@H](Cc1ccccc1)NC(=O)[C@H](CCC(=O)O)NC(=O)[C@H](CCCCN)NC(=O)[C@H](C)NC(=O)[C@H](C)NC(=O)[C@H](CCC(=O)O)NC(=O)CNC(=O)[C@H](CCC(=O)O)NC(=O)[C@H](CC(C)C)NC(=O)[C@H](Cc1ccc(O)cc1)NC(=O)[C@H](CO)NC(=O)[C@H](CO)NC(=O)[C@@H](NC(=O)[C@H](CC(=O)O)NC(=O)[C@H](CO)NC(=O)[C@@H](NC(=O)[C@H](Cc1ccccc1)NC(=O)[C@@H](NC(=O)CNC(=O)[C@H](CCC(=O)O)NC(=O)C(C)(C)NC(=O)[C@@H](N)Cc1c[nH]cn1)[C@@H](C)O)[C@@H](C)O)C(C)C)C(=O)N[C@@H](C)C(=O)N[C@@H](Cc1c[nH]c2ccccc12)C(=O)N[C@@H](CC(C)C)C(=O)N[C@H](C(=O)N[C@@H](CCC(=O)O)C(=O)N[C@@H](CCCCN)C(=O)NC(C)(C)C(=O)N[C@@H](CCCCN)C(=O)N[C@@H](CCC(=O)O)C(=O)N[C@@H](Cc1ccccc1)C(=O)N[C@@H](CC(C)C)C(N)=O)C(C)C [Compound 8, [Aib8,Glu23,Glu34,Lys35,Aib36,Lys37]-GLP-1-(7-37)-peptidyl-Glu-Phe-Leu amide] (H-H[Aib]EGTFTSDVSSYLEGEAAKEFIAWLVEK[Aib]KEFL-NH2)	100	EC50 (human GLP-1 receptor [3]; [11]): 0.163 nM; half-life ([5]; T1/2, mini-pigs): 32.8 h

The remaining lines, values behind:

Compound	CRE luciferase EC50, 0% HSA (human GLP-1 receptor [1]) [nM]	CRE luciferase EC50, 1% HSA (human GLP-1 receptor [1]) [nM]	C0 [5] [nM]	Vd [5] [L/kg]	clearance [5] [mL/h/kg]	half-life [5, 10] [h]	4 h Cholesterol Efflux Emax [2] [%]	also measured
[Aib2,His3,Glu15,Glu16,Glu17,Ala18,Lys20,Glu21,Ile23,Ala24,Leu27,Glu28,Lys29]-Glucagonyl-(1-29)-Aib-Lys-Glu-Phe-Leu amide (peptide)	0.08	0.049	–	–	–	–	–	–
[Glu15,Glu16,Lys17,Ala18,Lys20,Glu21,Ile23,Ala24,Leu27,Glu28,Lys29]-Glucagonyl-(1-29)-Aib-Lys-Glu-Phe-Leu amide (peptide)	0.086	0.044	–	–	–	–	–	–
Exendin-4(1-39) (ligand)	–	–	–	–	–	–	–	CRE luciferase EC50, 0% HSA (human GLP-1 receptor [6]): 0.005 nM; CRE luciferase EC50, 1% HSA (human GLP-1 receptor [6]): 0.004 nM
CC[C@H](C)[C@H](NC(=O)[C@H](Cc1ccccc1)NC(=O)[C@H](CCC(=O)O)NC(=O)[C@H](CCCCN)NC(=O)[C@@H](NC(=O)[C@H](C)NC(=O)[C@H](CCC(=O)O)NC(=O)CNC(=O)[C@H](CCC(=O)O)NC(=O)[C@H](CC(C)C)NC(=O)[C@H](Cc1ccc(O)cc1)NC(=O)[C@H](CO)NC(=O)[C@H](CO)NC(=O)[C@@H](NC(=O)[C@H](CC(=O)O)NC(=O)[C@H](CO)NC(=O)[C@@H](NC(=O)[C@H](Cc1ccccc1)NC(=O)[C@@H](NC(=O)CNC(=O)[C@H](CCC(=O)O)NC(=O)C(C)(C)NC(=O)[C@@H](N)Cc1c[nH]cn1)[C@@H](C)O)[C@@H](C)O)C(C)C)C(C)C)C(=O)N[C@@H](C)C(=O)N[C@@H](Cc1c[nH]c2ccccc12)C(=O)N[C@@H](CC(C)C)C(=O)N[C@H](C(=O)N[C@@H](CCC(=O)O)C(=O)N[C@@H](CCCCN)C(=O)NC(C)(C)C(=O)NCC(=O)N[C@@H](CCC(=O)O)C(=O)N[C@@H](Cc1ccccc1)C(=O)N[C@@H](CC(C)C)C(N)=O)C(C)C [Compound 32] (H-H[Aib]EGTFTSDVSSYLEGEAVKEFIAWLVEK[Aib]GEFL-NH2)	–	–	108	0.0769	1.04	51.3	85	EC50 (human GLP-1 receptor [3]; [11]): 0.039 nM; EC50 (human GLP-1 receptor [3]; [7]): 0.013 nM
CC[C@H](C)[C@H](NC(=O)[C@H](Cc1ccccc1)NC(=O)[C@H](CCC(=O)O)NC(=O)[C@H](CCCCN)NC(=O)[C@@H](NC(=O)[C@H](C)NC(=O)[C@H](CCC(=O)O)NC(=O)CNC(=O)[C@H](CCC(=O)O)NC(=O)[C@H](CC(C)C)NC(=O)[C@H](Cc1ccc(O)cc1)NC(=O)[C@H](CO)NC(=O)[C@H](CO)NC(=O)[C@@H](NC(=O)[C@H](CC(=O)O)NC(=O)[C@H](CO)NC(=O)[C@@H](NC(=O)[C@H](Cc1ccccc1)NC(=O)[C@@H](NC(=O)CNC(=O)[C@H](CCC(=O)O)NC(=O)C(C)(C)NC(=O)[C@@H](N)Cc1c[nH]cn1)[C@@H](C)O)[C@@H](C)O)C(C)C)C(C)C)C(=O)N[C@@H](CCC(N)=O)C(=O)N[C@@H](Cc1c[nH]cn1)C(=O)N[C@@H](CC(C)C)C(=O)N[C@H](C(=O)N[C@@H](CCC(=O)O)C(=O)N[C@@H](CCCCN)C(=O)N[C@@H](CC(C)C)C(=O)N[C@@H](CCCCN)C(=O)N[C@@H](CCC(=O)O)C(=O)N[C@@H](Cc1ccccc1)C(=O)N[C@@H](CC(C)C)C(N)=O)C(C)C [Compound 87, [Aib8,Glu23,Val25,Gln30,His31,Glu34,Lys35,Leu36,Lys37]-GLP-1-(7-37)-peptidyl-Glu-Phe-Leu amide] (H-H[Aib]EGTFTSDVSSYLEGEAVKEFIQHLVEKLKEFL-NH2)	–	–	155	0.0958	3.47	19	121	EC50 (human GLP-1 receptor [3]; [11]): 0.077 nM; EC50 (human GLP-1 receptor [3]; [7]): 0.025 nM
[Aib2,Lys17,Ala18,Arg20,Glu21,Leu27,Glu28,Lys29]-Glucagonyl-(1-29)-Aib-Lys-Glu-Phe-Leu amide (peptide)	0.393	0.153	–	–	–	–	–	–
